Several values for one entry are separate records, joined by “and”; a condition that tells them apart may be missing. Equal entries are not always repeated. Structures can show the parent of a compound that is named as a salt. Where two headings read alike, the source gives them in different places.
Molecular target: T1, LOX (Sus scrofa, UniProt P45845)
T1 construct: LOX enzyme was extracted from pig skin by the method of Shackleton and Hulmes; from tissue; host or cells: pig skin
T1 sequence (P45845 1-249): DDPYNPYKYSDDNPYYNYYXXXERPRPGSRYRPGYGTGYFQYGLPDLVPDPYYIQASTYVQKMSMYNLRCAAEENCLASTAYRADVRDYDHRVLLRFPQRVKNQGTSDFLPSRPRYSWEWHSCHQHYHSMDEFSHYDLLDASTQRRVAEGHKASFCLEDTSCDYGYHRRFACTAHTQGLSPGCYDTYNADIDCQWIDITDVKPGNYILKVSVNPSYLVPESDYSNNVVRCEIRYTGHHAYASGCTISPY
Test: LOX enzyme activity assay (HRP-coupled fluorescent, cadaverine substrate);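 further: LOX isolated from porcine skin, nine-point dilution series starting at 100 µM, 20 min preincubation with enzyme, BAPN serving as positive control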
Type: biochemical, pig
Conditions: for fold more potent than HTS hit 2a (LOX IC50): vs 2a

[1] = n ≥ 2, n = 2: individual values, n > 2: geometric mean [95% CI], 20 min preincubation, read-out: LOX IC50

Compound | IC50 [1] | other results
NCc1ccc(S(=O)(=O)N2CCCCC2)s1 [2a, (5-(Piperidin-1-ylsulfonyl)thiophen-2-yl)methanamine] | 17 µM and 21 µM | IC50 (high-throughput screen hit, read-out: mean IC50 (LOX, HTS hit)): 19 µM
CN(C)S(=O)(=O)c1ccc(CN)s1 [2b, 5-(Aminomethyl)-N,N-dimethylthiophene-2-sulfonamide] | 70 µM and 72 µM | –
CCNS(=O)(=O)c1ccc(CN)s1 [2c, 5-(Aminomethyl)-N-ethylthiophene-2-sulfonamide] | 27 µM and 31 µM | –
NCc1ccc(S(=O)(=O)N2CCC[C@H]2C(N)=O)s1 [2d, (S)-1-(5-(Aminomethyl)thiophen-2-ylsulfonyl)pyrrolidine-2-carboxamide] | 11 µM and 13 µM | –
NCc1ccc(S(=O)(=O)N2CCC[C@H]2CO)s1 [2e, (S)-(1-(5-(Aminomethyl)thiophen-2-ylsulfonyl)pyrrolidin-2-yl)methanol] | 3.1 µM and 3.3 µM | –
NCc1ccc(S(=O)(=O)N2CCCC2c2ccccc2)s1 (stereo not drawn) [2f, (5-(2-Phenylpyrrolidin-1-ylsulfonyl)thiophen-2-yl)methanamine] | 3.8 µM | –
NCc1ccc(S(=O)(=O)N2CCc3ccccc32)s1 [2g, (5-(Indolin-1-ylsulfonyl)thiophen-2-yl)methanamine] | 1.9 µM | fold more potent than HTS hit 2a (LOX IC50): ~10 fold
NCc1ccc(S(=O)(=O)N2CCCc3ccccc32)s1 [2h, (5-(3,4-Dihydroquinolin-1(2H)-ylsulfonyl)thiophen-2-yl)methanamine] | 2.5 µM and 2.7 µM | –
NCc1ccc(S(=O)(=O)N2CCOCC2)s1 [2i, (5-(Morpholinosulfonyl)thiophen-2-yl)methanamine] | 20 µM and 25 µM | –
Cl.Cl.NCc1ccc(S(=O)(=O)N2CCCNCC2)s1 [2j, (5-(1,4-Diazepan-1-ylsulfonyl)thiophen-2-yl)methanamine Dihydrochloride] | 9.4 µM and 12.7 µM | fold more potent than HTS hit 2a (LOX IC50): ~2 fold
CN1CCCN(S(=O)(=O)c2ccc(CN)s2)CC1 [2k, (5-(4-Methyl-1,4-diazepan-1-ylsulfonyl)thiophen-2-yl)methanamine] | 3.1 µM | –
CCNC(=O)N1CCCN(S(=O)(=O)c2ccc(CN)s2)CC1 [2l, 4-(5-(Aminomethyl)thiophen-2-ylsulfonyl)-N-ethyl-1,4-diazepane-1-carboxamide] | 2.1 µM | –

Now from value to molecule, other results behind:

IC50 [1] | Compound | other results
14 µM and 27 µM | NCc1ccc(Sc2ccccc2)s1 [4b, (5-(Phenylthio)thiophen-2-yl)methanamine Hydrochloride] | –
15 µM | NCc1ccc(S(=O)(=O)NCc2ccccc2)s1 [4c, 5-(Aminomethyl)-N-benzylthiophene-2-sulfonamide] | –
20 µM and 25 µM | NCc1ccc(C(=O)NCc2ccccc2)s1 [4d, 5-(Aminomethyl)-N-benzylthiophene-2-carboxamide] | –
13 µM | CS(=O)(=O)c1ccc(-c2ccc(CN)s2)cc1 [4e, (5-(4-(Methylsulfonyl)phenyl)thiophen-2-yl)methanamine Hydrochloride] | –
25 µM | Cl.Cl.NCc1ccc(S(=O)(=O)Cc2ccccc2)nc1 [5a, (6-(Benzylsulfonyl)pyridin-3-yl)methanamine Dihydrochloride] | fold weaker than aminomethylenethiophene counterpart 5b (LOX) (vs 5b): ~10 fold
40 µM and 45 µM | NCc1ccc(C(=O)NCc2ccccc2)o1 [5e, 5-(Aminomethyl)-N-benzylfuran-2-carboxamide] | –
12 µM and 13 µM | Cc1cc(CN)sc1S(=O)(=O)N1CCc2ccccc21 [5f, (5-(Indolin-1-ylsulfonyl)-4-methylthiophen-2-yl)methanamine] | –
> 100 µM | CNCc1ccc(S(=O)(=O)c2ccccc2)s1 [6a, N-Methyl-1-(5-(phenylsulfonyl)thiophen-2-yl)methanamine Hydrochloride] | –
> 100 µM | CC(N)c1ccc(S(=O)(=O)c2ccccc2)s1 (stereo not drawn) [6b, 1-(5-(Phenylsulfonyl)thiophen-2-yl)ethanamine] | –
> 100 µM | N#Cc1ccc(S(=O)(=O)c2ccccc2)s1 [6c, 5-(Phenylsulfonyl)thiophene-2-carbonitrile] | –
> 100 µM | N=C(N)c1ccc(S(=O)(=O)c2ccccc2)s1 [6d, 5-(Phenylsulfonyl)thiophene-2-carboximidamide Hydrochloride] | –

From publication PMC6937593, “Anti-metastatic Inhibitors of Lysyl Oxidase (LOX): Design and Structure–Activity Relationships” (Journal of Medicinal Chemistry, 2019)
